Measured values reported in patent US20170326125A1, “MULTISUBSTITUTED AROMATIC COMPOUNDS AS INHIBITORS OF THROMBIN” (VERSEON CORPORATION, priority 2016, published 2017).

These compounds were tested against T1, Human thrombin (Homo sapiens, UniProt P00734) (assay: Inhibition of the protease activity of thrombin (chromogenic substrate S-2238)). Settings: Table C; 3 nM thrombin, 125 μM S-2238, 10 min pre-incubation, RT.
T1 construct: purchased Haematologic Technologies Inc
Assay type: biochemical
Method: Compounds described herein can be assayed, by a variety of methods known in the art and described herein, for inhibition of biological activity, e.g., protease activity, of a variety of proteins, e.g., thrombin.
The thrombin activity reported herein (e.g., Table A) was obtained as follows. Human thrombin was obtained from Haematologic Technologies Inc. The chromogenic
Thrombin was assayed in buffer containing 0.05 M Tris (pH 7.4), 0.015 M NaCl and 0.01% PEG-8000. The final concentration of enzyme used was 3 nM thrombin. […] All assays were performed in 96-well microtiter plates at room temperature (RT). […] Inhibitor IC50 values were determined by adding test compound as ten point, three-fold serial dilutions in buffer solution, as known in the art. The plate was read at 10 minutes after substrate addition. The IC50 was calculated by plotting the percent (%) inhibition against compound concentration and fitting the data to a constrained four parameter sigmoidal curve, as known in the art.
With `CCC(=O)n1nc(-c2cccs2)nc1NCc1ccccc1` [Cmpd 352, 1-[5-(benzylamino)-3-(thiophen-2-yl)-1H-1,2,4-triazol-1-yl]propan-1-one] the IC50 was < 0.1 µM.
With `CCS(=O)(=O)n1nc(C(=O)N2CCOCC2)nc1N` [Cmpd 329, 1-(ethanesulfonyl)-3-[(morpholin-4-yl)carbonyl]-1H-1,2,4-triazol-5-amine] the IC50 was > 1 µM.
For `O=C(c1ccc(Cl)cc1)n1nc(-c2cccnc2)nc1NCc1ccc(F)cc1` [Cmpd 338, 1-[(4-chlorophenyl)carbonyl]-N-[(4-fluorophenyl)methyl]-3-(pyridin-3-yl)-1H-1,2,4-triazol-5-amine], the IC50 was < 0.1 µM.
In the case of `COC(=O)c1n[nH]c(NC2=NCCCCC2)n1` [Cmpd 381, methyl 5-[(3,4,5,6-tetrahydro-2H-azepin-7-yl)amino]-1H-1,2,4-triazole-3-carboxylate], the IC50 is reported as > 1 µM.
For `Nc1n[nH]c(-c2ccncc2)n1` [Cmpd 3, 3-(pyridin-4-yl)-1H-1,2,4-triazol-5-amine], the IC50 was > 1 µM.
In the case of `COC(=O)c1n[nH]c(NC(=O)C(C)(C)C)n1` [Cmpd 378, methyl 5-(2,2-dimethylpropanamido)-1H-1,2,4-triazole-3-carboxylate], the IC50 is reported as > 1 µM.
For `O=C(c1ccccc1)n1nc(-c2ccco2)nc1NCc1ccccc1` [Cmpd 358, 1-benzoyl-N-benzyl-3-(furan-2-yl)-1H-1,2,4-triazol-5-amine], the IC50 was < 0.1 µM.
`CCC(=O)n1nc(-c2cccnc2)nc1NCc1cccc(F)c1` [Cmpd 8, 1-(5-[(3-fluorophenyl)methyl]amino-3-(pyridin-3-yl)-1H-1,2,4-triazol-1-yl)propan-1-one] showed an IC50 of 0.1 to 1 µM.
With `Nc1nc(-c2cccnc2)nn1S(=O)(=O)c1ccccc1` [Cmpd 326, 1-(benzenesulfonyl)-3-(pyridin-3-yl)-1H-1,2,4-triazol-5-amine] the IC50 was > 1 µM.
With `O=C(c1cccs1)n1nc(-c2cccnc2)nc1NCc1ccc(F)cc1` [Cmpd 403, N-[(4-fluorophenyl)methyl]-3-(pyridin-3-yl)-1-[(thiophen-2-yl)carbonyl]-1H-1,2,4-triazol-5-amine] the IC50 was < 0.1 µM.
For `O=C(c1cccnc1)n1nc(-c2ccco2)nc1NCc1cccs1` [Cmpd 368, 3-(furan-2-yl)-1-[(pyridin-3-yl)carbonyl]-N-(thiophen-2-ylmethyl)-1H-1,2,4-triazol-5-amine], the IC50 was < 0.1 µM.
In the case of `COC(=O)c1nc(NC(=O)c2ccc(Cl)cc2Cl)n[nH]1` [Cmpd 377, methyl 3-[(2,4-dichlorobenzene)amido]-1H-1,2,4-triazole-5-carboxylate], the IC50 is reported as > 1 µM.
`O=C(Nc1ccccc1Cl)c1nc(-n2cnnc2)n[nH]1` [Cmpd 391, N-(2-chlorophenyl)-3-(4H-1,2,4-triazol-4-yl)-1H-1,2,4-triazole-5-carboxamide] was tested, and the IC50 was > 1 µM.
In the case of `COC(=O)c1n[nH]c(NC(=O)c2ccoc2C)n1` [Cmpd 379, methyl 5-(2-methylfuran-3-amido)-1H-1,2,4-triazole-3-carboxylate], the IC50 is reported as > 1 µM.
`COc1ccc(CNc2nc(-c3cccnc3)nn2C(=O)CCc2ccccc2)cc1` [Cmpd 321, 1-(5-[(4-methoxyphenyl)methyl]amino-3-(pyridin-3-yl)-1H-1,2,4-triazol-1-yl)-3-phenylpropan-1-one] showed an IC50 of 0.1 to 1 µM.
With `O=C(c1cccs1)n1nc(-c2cccs2)nc1NCc1ccccc1` [Cmpd 412, N-benzyl-3-(thiophen-2-yl)-1-[(thiophen-2-yl)carbonyl]-1H-1,2,4-triazol-5-amine] the IC50 was > 1 µM.

Same assay, conditions: inhibition of the protease activity of thrombin
In the case of `CC(C)(C)OC(=O)n1nc(-c2cccnc2)nc1NCc1ccc(F)cc1` [Cmpd 300, tert-butyl 5-[(4-fluorophenyl)methyl]amino-3-(pyridin-3-yl)-1H-1,2,4-triazole-1-carboxylate], the IC50 is reported as > 1 µM.
With `COc1cccc(C(=O)n2nc(-c3ccccn3)nc2NCc2ccccc2)c1OC` [Cmpd 233, N-benzyl-1-[(2,3-dimethoxyphenyl)carbonyl]-3-(pyridin-2-yl)-1H-1,2,4-triazol-5-amine] the IC50 was < 0.1 µM.
In the case of `O=C(c1ccoc1)n1nc(-c2ccncc2)nc1NCc1ccccc1` [Cmpd 268, N-benzyl-1-[(furan-3-yl)carbonyl]-3-(pyridin-4-yl)-1H-1,2,4-triazol-5-amine], the IC50 is reported as < 0.1 µM.
`O=C(c1ccccc1Cl)n1nc(-c2ccccn2)cc1NCc1ccccc1` [Cmpd 244, N-benzyl-1-[(2-chlorophenyl)carbonyl]-3-(pyridin-2-yl)-1H-pyrazol-5-amine] was tested, and the IC50 was 0.1 to 1 µM.
For `COc1cc(C)ccc1C(=O)n1nc(-c2ccccc2)nc1NCc1ccc(F)cc1` [Cmpd 205, N-[(4-fluorophenyl)methyl]-1-[(2-methoxy-4-methylphenyl)carbonyl]-3-phenyl-1H-1,2,4-triazol-5-amine], the IC50 was 0.1 to 1 µM.
In the case of `COc1cccc(C(=O)n2nc(-c3ccccn3)nc2NCc2ccccc2)c1` [Cmpd 261, N-benzyl-1-[(3-methoxyphenyl)carbonyl]-3-(pyridin-2-yl)-1H-1,2,4-triazol-5-amine], the IC50 is reported as < 0.1 µM.
With `O=C(c1ccco1)n1nc(-c2ccncc2)nc1NCc1ccccc1` [Cmpd 266, N-benzyl-1-[(furan-2-yl)carbonyl]-3-(pyridin-4-yl)-1H-1,2,4-triazol-5-amine] the IC50 was < 0.1 µM.
With `CCN(C)C(=O)n1nc(-c2cccnc2)nc1NCc1ccc(F)cc1` [Cmpd 297, N-ethyl-5-[(4-fluorophenyl)methyl]amino-N-methyl-3-(pyridin-3-yl)-1H-1,2,4-triazole-1-carboxamide] the IC50 was > 1 µM.
In the case of `O=C(c1ccccc1OC(F)(F)F)n1nc(-c2ccccn2)nc1NCc1ccccc1` [Cmpd 285, N-benzyl-3-(pyridin-2-yl)-1-[2-(trifluoromethoxy)phenyl]carbonyl-1H-1,2,4-triazol-5-amine], the IC50 is reported as < 0.1 µM.

Same assay, conditions: inhibition of the protease activity of thrombin; class symbols a/b/c
In the case of `CC(C)C(=O)n1nc(-c2ccccn2)nc1NCc1ccccc1` [Cmpd 138, 1-[5-(benzylamino)-3-(pyridin-2-yl)-1H-1,2,4-triazol-1-yl]-2-methylpropan-1-one], the IC50 is reported as < 0.1 µM.
In the case of `COc1ccccc1C(=O)n1nc(-c2ccccn2)nc1NCc1ccsc1` [Cmpd 117, 1-[(2-methoxyphenyl)carbonyl]-3-(pyridin-2-yl)-N-(thiophen-3-ylmethyl)-1H-1,2,4-triazol-5-amine], the IC50 is reported as < 0.1 µM.
For `Fc1ccc(CNc2nc(-c3cccnc3)n[nH]2)cc1` [Cmpd 4], the IC50 was > 1 µM.
For `COc1ccccc1C(=O)n1nc(-c2ccccn2)cc1NCc1cccs1` [Cmpd 116, 1-[(2-methoxyphenyl)carbonyl]-3-(pyridin-2-yl)-N-(thiophen-2-ylmethyl)-1H-pyrazol-5-amine], the IC50 was 0.1 to 1 µM.
`O=C(c1ccccc1)n1nc(-c2ccncc2)nc1NCc1ccccc1` [Cmpd 160, 1-benzoyl-N-benzyl-3-(pyridin-4-yl)-1H-1,2,4-triazol-5-amine] was tested, and the IC50 was < 0.1 µM.
`CCC(=O)n1nc(-c2cccc(F)c2)nc1NCc1ccccc1` [Cmpd 135, 1-[5-(benzylamino)-3-(3-fluorophenyl)-1H-1,2,4-triazol-1-yl]propan-1-one] gave an IC50 of 0.1 to 1 µM.
`CN(C(=O)c1cc(-c2ccccn2)n(CCc2ccc(F)cc2)n1)c1ccccc1` [Cmpd 131, 1-[2-(4-fluorophenyl)ethyl]-N-methyl-N-phenyl-5-(pyridin-2-yl)-1H-pyrazole-3-carboxamide] was tested, and the IC50 was > 1 µM.
In the case of `CC(C)C(=O)n1nc(-c2ccncc2)nc1NCc1ccc(F)cc1` [Cmpd 76, 1-(5-[(4-fluorophenyl)methyl]amino-3-(pyridin-4-yl)-1H-1,2,4-triazol-1-yl)-2-methylpropan-1-one], the IC50 is reported as < 0.1 µM.
With `CCC(=O)n1nc(-c2cccnc2)nc1SC` [Cmpd 153, 1-[5-(methylsulfanyl)-3-(pyridin-3-yl)-1H-1,2,4-triazol-1-yl]propan-1-one] the IC50 was > 1 µM.
`O=C(c1cccc2c1OC(F)(F)O2)n1nc(-c2ccccc2)nc1NCc1ccc(F)cc1` [Cmpd 101, 1-[(2,2-difluoro-2H-1,3-benzodioxol-4-yl)carbonyl]-N-[(4-fluorophenyl)methyl]-3-phenyl-1H-1,2,4-triazol-5-amine] was tested, and the IC50 was > 1 µM.
With `CSc1nc(-c2cccnc2)nn1C(=O)c1ccccc1Cl` [Cmpd 180, 3-1-[(2-chlorophenyl)carbonyl]-5-(methylsulfanyl)-1H-1,2,4-triazol-3-ylpyridine] the IC50 was < 0.1 µM.
In the case of `CC(C)(C)C(=O)Cn1nc(-c2cccnc2)nc1NCc1ccc(F)cc1` [Cmpd 72, 1-(5-[(4-fluorophenyl)methyl]amino-3-(pyridin-3-yl)-1H-1,2,4-triazol-1-yl)-3,3-dimethylbutan-2-one], the IC50 is reported as > 1 µM.
With `CCC(=O)c1cn(-c2ccccn2)nc1NCc1ccc(F)cc1` [Cmpd 50] the IC50 was > 1 µM.
`COc1ccc(C(=O)n2nc(-c3ccccn3)cc2NCc2ccccc2)c(N)c1` [Cmpd 105, 1-[(2-amino-4-methoxyphenyl)carbonyl]-N-benzyl-3-(pyridin-2-yl)-1H-pyrazol-5-amine] gave an IC50 of 0.1 to 1 µM.
`CC(C)(C)C(=O)n1nc(-c2ccccc2F)cc1NCc1ccccc1` [Cmpd 133, 1-[5-(benzylamino)-3-(2-fluorophenyl)-1H-pyrazol-1-yl]-2,2-dimethylpropan-1-one] gave an IC50 of 0.1 to 1 µM.
`O=C(Nc1nc(C(=O)N2CCCC2)n[nH]1)c1ccccc1Cl` [Cmpd 171, 2-chloro-N-3-[(pyrrolidin-1-yl)carbonyl]-1H-1,2,4-triazol-5-ylbenzamide] was tested, and the IC50 was > 1 µM.
In the case of `COc1ccc(CNc2nc(-c3ccncc3)nn2C(=O)c2ccccc2)cc1` [Cmpd 158, 1-benzoyl-N-[(4-methoxyphenyl)methyl]-3-(pyridin-4-yl)-1H-1,2,4-triazol-5-amine], the IC50 is reported as > 1 µM.
With `Cc1ccc(C(=O)n2nc(-c3ccccn3)nc2NCc2ccccc2)c(N)c1` [Cmpd 107, 1-[(2-amino-4-methylphenyl)carbonyl]-N-benzyl-3-(pyridin-2-yl)-1H-1,2,4-triazol-5-amine] the IC50 was < 0.1 µM.
